Data set [1] concerns MV4-11. As to the kind of experiment: CellTiter-GLO (CTG) assay, combinatorial matrix. It is filed as cell-based. Conditions: MV4-11, CTG matrix of the IMT with Bcl-2 inhibitor (Venetoclax, Table 10), wide concentration range. As to the method: To determine the in vitro cellular viability, cellular ATP concentrations were measured using a luminescence-based homogenous assay format, as described here. […] Optimal cell density for each cell line was determined to guarantee linearity. For viability assays with compounds, cells were then seeded at a density of 200 to 1000 per well in 25 μl in 384-well plates (Greiner Bio-One, Frickenhausen, Germany). After overnight incubation at 37° C./5% CO2, 25 nl or 75 nl compounds were added to each sample well by using BIOMEK FXP Laboratory Automation Workstation (Beckman Coulter, USA). Wells with cells and 0.1% or 0.3% DMSO in culture medium were used as positive controls, wells with cells and 10 μM staurosporine (Selleck Chemicals, Huston, USA) in culture medium were used as negative controls. […] Luminescence was measured by Envision Plate Reader (Perkin Elmer, USA). […]
The general suitability of IMT substances for a combination with standard inhibitors of the Bcl-2 signalling pathway was first determined in in vitro cell culture experiments in a matrix format (Table 10). The changes in the cellular ATP content, as an indicator of the metabolic activity of the cells, were measured using the CellTiter-GLO Assay (CTG), as described in Example 1).

Another data set has as its system MOLM-13. As to the kind of experiment: apoptosis induction, flow cytometry. It is filed as cell-based. The procedure:
(§1) This analysis was carried out using flow cytometry and the established cellular markers for necrosis, apoptosis and living cells.
(§2) These experiments were followed by a broader analysis of the apoptosis induction by the inhibitor combination used in the four AML cell lines MV4-11, MOLM-13, OCI-AML3 and OCI-AML2 (FIG. 3). This analysis was carried out using flow cytometry and the established cellular markers for necrosis, apoptosis and living cells.

The test system of data set [2] is MV4-11. As to the kind of experiment: apoptosis induction, flow cytometry. It is filed as cell-based. The procedure: as §1, §2
(In general: Flow cytometry measures light scatter and fluorescence of single cells or particles in a stream.)

In a further data set the test system is OCI-AML2. As to the kind of experiment: apoptosis induction, flow cytometry. It is filed as cell-based. Conditions: IMT alone, flow cytometry (FIG. 3). As to the method: as §1, §2
For a further data set, the system named is OCI-AML3. Description: apoptosis induction, flow cytometry. It is filed as cell-based. Conditions: IMT alone, flow cytometry (FIG. 3). The procedure: as §1, §2
Data set [3] in a line: PK and toxicological studies, plasma and liver concentrations. It is filed as in vivo. Conditions: oral combination of the IMT and Venetoclax in 0.5% methyl cellulose in water, NBSGW mice, 4 hours, plasma and liver (FIG. 4). The procedure: Combinations s of 2-[(3R)-1-[(2R)-2-[4-(2-chloro-4-fluoro-phenyl)-2-oxo-chromen-7-yl]oxypropanoyl]-3-piperidyl]acetic acid and Venetoclax were administered orally in a formulation of 0.5% methyl cellulose in water, before the respective substance concentrations (y-axis) of Venetoclax (left) or 2-[(3R)-1-[(2R)-2-[4-(2-chloro-4-fluoro-phenyl)-2-oxo-chromen-7-yl]oxypropanoyl]-3-piperidyl]acetic acid (right) after 4 hours and extraction from blood plasma or liver tissue were analysed by LC-MS. Error bars indicate the standard deviation around the mean of the multiple measurements.
For this, a vehicle formulation suitable for the oral administration of the combination of Venetoclax and 2-[(3R)-1-[(2R)-2-[4-(2-chloro-4-fluoro-phenyl)-2-oxo-chromen-7-yl]oxypropanoyl]-3-piperidyl]acetic acid was prepared to examine its pharmacokinetic suitability. Since the formulations based on ethanol, PEG-400 and Phosal that have been published for Venetoclax have not proven to be suitable for generating an administrable solution or suspension of IMT and Venetoclax, a simplified formulation of 0.5% methyl cellulose in water was prepared, which was tested initially in PK and toxicological studies in NBSGW mice (FIG. 4). […] On the other hand, doses that could be safely used were established in this mouse model, with which the subsequent studies could be carried out.

Data set [4] concerns Venetoclax-resistant PDX AML cells. Description: in vivo PDX study in a Venetoclax-resistant model. Conditions: NSGS mice. An excerpt: A=overview of the study implementation (corresponding to FIG. 5A) in NSGS mice injected with spleenocytes (n=12). B=flow cytometric analysis and % of live hCD45+AML cells in peripheral blood, spleen and bone marrow of the treated groups; C=immunohistological analysis of bone marrow and spleen tissue sections stained with hcd45 (brown); Quantitative analysis of the hCD45+ cells from C with three technical replicates (n=2). E=blood analysis of the survival group; F=Kaplan-Meier survival analysis (n=6 per group). […] The procedure was similar to that previously described for the CDX model, except for the addition of an endpoint control cohort in each treatment group.

Where [5] appears, read: IMT alone, flow cytometry (FIG. 3).
[6] abbreviates: IMT combined with Venetoclax, compared to Venetoclax alone.

SMILES strings stand for the structures.

In the case of `C[C@@H](Oc1ccc2c(-c3ccc(F)cc3Cl)cc(=O)oc2c1)C(=O)N1CCC[C@H](CC(=O)O)C1` [2-[(3R)-1-[(2R)-2-[4-(2-chloro-4-fluoro-phenyl)-2-oxo-chromen-7-yl]oxypropanoyl]-3-piperidyl]acetic acid], the “combinatorial effect (cellular ATP content)” value in the data set on MV4-11 [1] is “additive or even synergistic effect”. Further, the induction of apoptosis result is “cannot trigger apoptosis” in the data set with MOLM-13 (setting [5]); “increases the induction of apoptosis significantly” in the data set on MOLM-13 (setting [6]); “cannot trigger apoptosis” in the data set with MV4-11 [2] (setting [5]); “increases the induction of apoptosis significantly” with MV4-11 [2] (setting [6]); “cannot trigger apoptosis” with OCI-AML2; “cannot trigger apoptosis” in the data set with OCI-AML3. Moreover, the “PK parameters, in particular the plasma and tissue concentrations” value in data set [3] was “do not significantly influence one another”. Also, the “tumour load and circulating hCD45-positive AML cells” value in data set [4] (IMT combined with Venetoclax vs individual inhibitors or control, peripheral blood, bone marrow, spleen (FIG. 6)) is “significantly lower”. Further, in data set [4] (IMT/Bcl-2i combination, treatment lasting 21 days), the “overall survival (survival analysis)” value was “long-lasting, synergistic effect”.

Source of the values: patent US20240252454A1, “COMPOSITION COMPRISING AN INHIBITOR OF MITOCHONDRIAL TRANSCRIPTION” (LEAD DISCOVERY CENTER GMBH, priority 2021, published 2024).
